According to article PMC4795788, “Finding Potent Sirt Inhibitor in Coffee: Isolation, Confirmation and Synthesis of Javamide-II (N-Caffeoyltryptophan) as Sirt1/2 Inhibitor” (PLoS ONE, 2016):

What was measured:
Format in all cases: biochemical
Sirt3 = biological target: T1, Sirt3 (Homo sapiens, UniProt Q9NTG7); experiment: fluorescent deacetylase assay, % inhibition at […]
T1 construct: human recombinant Sirt3 (Cayman Direct Fluorescent Screening Assay kit)
T1 sequence (Q9NTG7 102-399): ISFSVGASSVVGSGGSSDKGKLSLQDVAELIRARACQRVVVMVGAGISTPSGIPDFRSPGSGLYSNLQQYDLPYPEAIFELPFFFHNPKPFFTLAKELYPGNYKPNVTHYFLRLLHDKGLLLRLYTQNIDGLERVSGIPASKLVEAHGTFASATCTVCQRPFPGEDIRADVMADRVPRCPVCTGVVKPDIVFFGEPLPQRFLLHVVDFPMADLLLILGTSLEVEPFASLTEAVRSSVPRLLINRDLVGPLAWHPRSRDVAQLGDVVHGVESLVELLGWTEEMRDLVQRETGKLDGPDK

Sirt2 = biological target: T2, Sirt2 (Homo sapiens, UniProt Q8IXJ6); experiment: fluorescent deacetylase assay, Lineweaver-Burk kinetics (IC50 […])
T2 sequence (Q8IXJ6 2-389): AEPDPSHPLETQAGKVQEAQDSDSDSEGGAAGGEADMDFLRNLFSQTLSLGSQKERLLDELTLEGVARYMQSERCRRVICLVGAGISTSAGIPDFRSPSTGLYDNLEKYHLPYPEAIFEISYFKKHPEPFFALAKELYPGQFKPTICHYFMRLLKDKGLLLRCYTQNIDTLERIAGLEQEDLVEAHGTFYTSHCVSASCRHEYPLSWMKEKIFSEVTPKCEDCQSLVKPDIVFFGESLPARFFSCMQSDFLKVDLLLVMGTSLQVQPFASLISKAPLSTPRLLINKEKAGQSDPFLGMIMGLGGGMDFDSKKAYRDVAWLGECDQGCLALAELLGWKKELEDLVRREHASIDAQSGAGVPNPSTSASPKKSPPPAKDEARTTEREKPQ

Sirt1 = biological target: T3, Sirt1 (Homo sapiens, UniProt Q96EB6); experiment: fluorescent deacetylase assay
T3 construct: human recombinant Sirt1 (Cayman Direct Fluorescent Screening Assay kit)
T3 sequence (Q96EB6 2-747): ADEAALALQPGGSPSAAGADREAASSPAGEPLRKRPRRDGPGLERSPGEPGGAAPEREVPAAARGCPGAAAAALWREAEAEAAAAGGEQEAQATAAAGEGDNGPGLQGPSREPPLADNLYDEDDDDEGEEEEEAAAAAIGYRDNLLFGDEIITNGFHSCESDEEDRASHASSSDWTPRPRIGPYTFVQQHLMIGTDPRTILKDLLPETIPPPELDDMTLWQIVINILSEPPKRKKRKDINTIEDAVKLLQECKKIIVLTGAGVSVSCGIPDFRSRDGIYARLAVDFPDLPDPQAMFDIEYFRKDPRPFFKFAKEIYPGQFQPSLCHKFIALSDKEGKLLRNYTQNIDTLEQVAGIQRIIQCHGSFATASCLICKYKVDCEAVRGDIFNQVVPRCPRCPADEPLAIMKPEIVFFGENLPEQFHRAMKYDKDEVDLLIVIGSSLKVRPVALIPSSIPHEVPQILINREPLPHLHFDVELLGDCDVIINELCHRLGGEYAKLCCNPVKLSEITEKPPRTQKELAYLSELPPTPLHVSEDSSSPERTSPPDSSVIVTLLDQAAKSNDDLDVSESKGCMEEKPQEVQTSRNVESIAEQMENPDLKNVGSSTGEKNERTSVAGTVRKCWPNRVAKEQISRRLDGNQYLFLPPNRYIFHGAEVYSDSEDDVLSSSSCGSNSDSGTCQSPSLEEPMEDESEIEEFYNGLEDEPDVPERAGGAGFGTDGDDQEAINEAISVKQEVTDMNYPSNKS

O=C(/C=C/c1ccc(O)c(O)c1)N[C@@H](Cc1c[nH]c2ccccc12)C(=O)O [javamide-II, (E)-(3-(3,4-dihydroxyphenyl)acryloyl)tryptophan] was tested, and the inhibition at 60 µM (Sirt3) was 50 ± 8.1%, the Ki (Sirt2) was 5.3 µM and the IC50 (Sirt1) was 34 µM.
